Non-standard residues stand in square brackets, D forms with d. No end group written: not given here. sY = N[C@@H](Cc1ccc(OS(=O)(=O)O)cc1)C(=O)O
Legend:
[1] = system: Agrobacterium tumefaciens strain GV3101; test: Growth of Agrobacterium tumefaciens culture (OD 600); format: cell-based; details: 10.0%, 2.0%, 0.40%, 0.08%, 0.02%
Method: Agrobacterium tumefaciens strain GV3101 was inoculated into Luria broth medium (LB) and grown for 20 hours. Initially the optical density (OD) of the culture was measured at a wavelength of 600 nm using a spectrophotometer and normalized to a low starting density. The cultures were then divided equally and treated with similar proportions of thionins that are representative of mixtures used to treat citrus trees. The ratios of Cs.thionin (SEQ ID NO: 651), As.thionin (SEQ ID NO: 652) and Mt.thionin (SEQ ID NO: 653) used were 10.0%, 2.0%, 0.40%, 0.08%, and 0.02% and were prepared to match the 20 mL total volume of filtrate of each of the thionin mixtures that is used as a treatment per tree. Each thionin mixture was also compared to control mixtures containing only: filtrate, minimal media (LB), or a tetracycline (Tet) antibiotic (10 μg/mL per culture). Each bar represents a combined OD measure of 3 replicates. After incubation with the thionin and antibiotic mixtures, the optical density (OD 600) was measured again to determine if growth of the Agrobacterium cultures was reduced or inhibited.

[2] = system: soybean; test: Foliar application to soybean, field yield trials; format: in vivo; details: for Average Bu/Ac Increase compared to Control Variety 1 and 2 / Average Total Yield Bu/Ac Variety 1 and 2 / Average Total Yield Bu/Ac Variety 2: foliar at R2, 7 US Midwest locations; for Average Total Yield Bu/Ac Variety 2: AG3536
[3] = system: soybean; test: Foliar application to soybean, field yield trials; format: in vivo; details: foliar at R2, AG2836, 7 US Midwest locations
[4] = system: reactive oxygen species (ROS) production in corn tissue; test: ROS activity assay in corn tissue (luminol/horseradish peroxidase, RLU); details: Table 33; 5 nM polypeptide; RLU relative to native Bt.4Q7Flg22 = 100
[5] = system: Pseudomonas syringae pv. actinidiae (PSA-V); test: PSA-V leaf spot in potted kiwi plants; format: in vivo
[6] = system: reactive oxygen species (ROS) production in Kiwi 'Hayward' leaf petioles; test: ROS activity assay in kiwi leaf petioles; format: cell-based, Actinidiae deliciosa; details: 100 nM peptide
Method: To test the sensitivity of kiwi leaves to 22-amino acid fragments of flagellin, 1 mm slices were cut through Actinidiae deliciosa Kiwi ‘Hayward’ leaf petioles and floated in 150 μL of water in a 96-well plate, with one slice per well. […] In two independent experiments, a total of 6 kiwi leaf petiole samples were treated with each Flg22 polypeptide in Table 94. The average total RLU and standard error of the means (SEM) was calculated for each treatment. A two-tailed T-test was used to determine significance at the 90% confidence level (P<0.1) between treatments. Relative ROS production was determined for each polypeptide in comparison to total RLUs for the 100 nM Bt.4Q7Flg22 control.

[7] = system: reactive oxygen species (ROS) production in soybean leaf tissue; test: ROS activity assay in soybean leaf tissue (luminol/horseradish peroxidase, RLU); format: cell-based; details: Table 33; 100 nM polypeptide; RLU relative to native Bt.4Q7Flg22 = 100
[8] = system: corn; test: Foliar application to corn in growth room, plant height (non-stress, heat and water deficit stress)
[9] = system: corn; format: in vivo
[10] = system: soybean; test: Foliar application to soybean in growth room, plant height (non-stress, heat and water deficit stress); format: in vivo
Method: Ec.Flg22 (SEQ ID NO: 527) was applied to soybean (Beck's 297NR).
Plant height (cm) was measured just prior to the foliar application delivered at 3 weeks and then again 2 weeks later when the plants were 5-weeks-old. Two replicate trials were conducted using 18 plants per trial.
Soybean plants were grown as described in Example 6. The At.PSKα polypeptide (SEQ ID NO: 598) was applied as a foliar spray to the plants at the V1-V4 stage. Soybean plants treated with foliar applications of At.PSKα and control plants treated with water and surfactant alone were then grown in conditions described in Examples 7-9 that produced a non-stress and stress (heat and water deficit) environments. Table 37 describes the percentage change or increase in height reported for soybean plants treated with At.PSKα as a foliar spray at the V1-V4 growth stage.
RHPP bioactive priming polypeptide (SEQ ID NO: 600) was also applied as foliar treatment to R1 stage hybrid soybean (Beck's 297R4) with 0.1% (v/v) non-ionic surfactant ([…] SURFACE) using a spray bottle delivering approximately 1.2 ml/plant. This experiment was performed to look at the effects of RHPP on plant growth and was conducted using a total of 18 plants per treatment group. […] R1 stage soybean plants were treated with nothing (non-treated control), […] SURFACE surfactant applied at a concentration of 0.1% (v/v) or the RHPP polypeptide (300 nM) applied in combination with […] SURFACE surfactant (0.1% v/v). Height for each plant was recorded at the time of spray and again at 16 days post foliar application and average growth parameters were compared between foliar treatments (Table 39).

[11] = system: Candidatus Liberibacter asiaticus; details: in vivo

Cs.thionin: thionin polypeptide, applied as filtrate (RVCQSQSHHFHGACFSHHNCAFVCRNEGFSGGKCRGVRRRCFCSKLC; applied as filtrate; listed as Citrus sinensis)
growth of Agrobacterium cultures vs filtrate, LB or Tet controls [1]: dose dependent response and decreased growth

Gm RHPP (GGIRAAPTGNER; Glycine max)
Average Bu/Ac Increase compared to Control Variety 1 and 2 ([2]; use rate 4.0 Fl. oz/Ac): +1.26 Bu/Ac | Average Total Yield Bu/Ac Variety 1 and 2 ([2]; use rate 4.0 Fl. oz/Ac): 61.83 Bu/Ac | Average Bu/Ac Increase compared to Control Variety 1 and 2 ([2]; use rate 8.0 Fl. oz/Ac): +0.51 Bu/Ac | Average Total Yield Bu/Ac Variety 1 and 2 ([2]; use rate 8.0 Fl. oz/Ac): 61.08 Bu/Ac | Average Total Yield Bu/Ac Variety 2 ([2]; use rate 4.0 Fl. oz/Ac): 66.35 Bu/Ac | Average Total Yield Bu/Ac Variety 2 ([2]; use rate 8.0 Fl. oz/Ac): 62.46 Bu/Ac | Average Total Yield Bu/Ac Variety 1 ([3]; use rate 4.0 Fl. oz/Ac): 58.61 Bu/Ac | Average Total Yield Bu/Ac Variety 1 ([3]; use rate 8.0 Fl. oz/Ac): 59.47 Bu/Ac

Mt.thionin: thionin polypeptide, applied as filtrate (RTCESQSHRFKGPCSRDSNCATVCLTEGFSGGDCRGFRRRCRCTRPCVFDEK; applied as filtrate)
growth of Agrobacterium cultures vs filtrate, LB or Tet controls [1]: dose dependent response and decreased growth

TRLSSGLKINSAKDDAAGLQIA (listed as Pseudomonas syringae) [Flg22-PSA, Flg22 from Pseudomonas syringae pv. actinidiae]
Avg. Activity (%) Corn (5828 YX) 5 nM polypeptide [4]: 154.4% | PSA-V leaf spot symptoms vs untreated control ([5]; 6, 16 and 23 DAI): significantly reduced PSA-V leaf spot symptoms | less leaf spot compared to untreated control ([5]; combination with Flg22-PSA pre-treatment (partner not given), 29 DAI): 14.3% | Average Total Relative Light Units (RLUs); SEM in parentheses ([6]; Kiwi 'Hayward' leaf petiole slices, 40 minutes time course): 124,550 RLU | ROS production relative to Bt4Q7Flg22 (%) ([6]; Kiwi 'Hayward' leaf petioles): 262% | Avg. Activity (%) Soybean (297 R4) 100 nM polypeptide [7]: 113.1%

Tyr(SO3H)-I-Tyr(SO3H)-TQ ([sY]I[sY]TQ; listed as Arabidopsis thaliana) [At.PSKα, Phytosulfokine alpha, Arabidopsis thaliana]
Plant Height Normalized as a percentage of control height Non-stress ([8]; 5 weeks, control surfactant 0.01% v/v, HpaG-like 1 μM, At.PSKα 100 nM): 98.2% | Plant Height Normalized as a percentage of control height Stress ([8]; 5 weeks, heat and water deficit stress, control surfactant 0.01% v/v, HpaG-like 1 μM, At.PSKα 100 nM): 107.8% | growth phenotype vs control ([8]; foliar (HpaG-like 1 μM, PSKα), heat and water deficit stress): improved growth phenotype | Height (cm) after stress 5 weeks ([8]; heat and water deficit stress, HpaG-like 1 μM, At.PSKα 100 nM foliar): 54.88 cm | Height (cm) after non-stress 5 weeks ([8]; non-stress growth room, HpaG-like 1 μM, At.PSKα 100 nM foliar): 58.62 cm | Bu/Ac Foliar Corn (yield increase) ([9]; 1 μM foliar spray with surfactant at V5-V8, corn hybrid 5140RR, vs water control): 3.0 Bu/Ac | yield increase ([9]; foliar 1 μM, V5-V8, hybrid 5140RR, one location): 3 Bu/Ac | increase in height vs control ([10]; foliar at V1-V4, non-stress environment): 3.5% | increase in height vs control ([10]; foliar at V1-V4, stress (heat and water deficit) environment): 4.3% | Percentage (%) change in Height in Stress Environment Soybean with At.PSKα over control ([10]; foliar spray at V1-V4, heat and water deficit stress): 4.3% | Percentage (%) change in Height in Non-Stress Environment Soybean with At.PSKα over control ([10]; foliar spray at V1-V4, non-stress): 3.5% | Bu/Ac Foliar Soybean (yield increase) ([2]; 1 μM foliar spray with surfactant at V1-V4, soybean hybrid 375 NR, vs water control): 0.8 Bu/Ac | yield increase ([2]; foliar 1 μM, V1-V4, hybrid 375 NR, one location): 0.8 Bu/Ac

thionin tagged: thionin polypeptide comprising a phloem localization sequence (printed SEQ ID NO: 650) (RTCESQSHRFKGPCSRDSNCATVCLTEGFSGGDCRGFRRRCRCTRPCVFDEK)
Ct values vs control trees [11]: higher average Ct values | average Ct value vs un-tagged thionin [11]: higher average Ct value at T56

Source: US12268727B2, “Bioactive polypeptides for improvements in plant protection, growth and productivity” (priority 2017, dated 2025)
